The values that follow come from EP0998923A1, “Use of 5-HT7 receptor agonists for the treatment or prophylaxis of ischemias” (BASF AKTIENGESELLSCHAFT, priority 1998, dated 2000).

Data set [1] concerns male Long Evans rats. The data set can be described thus: Permanent distal middle cerebral artery (MCA) occlusion, rat model of experimental stroke. It is filed as in vivo. As to the method:
The experiments were carried out in male Long Evans rats. Under halothane anesthesia supplemented with nitrous oxide, the right middle cerebral artery (MCA) was dissected and permanently ligated at a distal position as described in the literature. The outcome of the experiments was quantified by determining the resulting infarct volume 22 hours after MCA occlusion.
In the first series of experiments, animals were treated with 2 mg/kg R(+)-8-OH-DPAT i.v. followed by a maintenance infusion of 1 mg/kg/h R(+)-8-OH-DPAT i.v. Drug administration was started 90 min after MCA occlusion. In the second series of experiments, rats were pretreated with 2.14 mg/kg/h WAY 100,635 i.p., started 2 hours before MCA occlusion; administration of R(+)-8-OH-DPAT was subsequently performed as in the first study. Accordingly, in the second series a total dose of 2.14 mg/kg/h of WAY 100,635 had been administered for 3.5 h (total dosage = 7.49 mg/kg) before treatment with the agonist R(+)-8-OH-DPAT commenced. The blockade of 5-HT1A receptors under these conditions was confirmed by the complete lack of stereotyped behavior observed in animals treated with R(+)-8-OH-DPAT […]. Under the conditions of the second series, any pharmacological effect of R(+)-8-OH-DPAT treatment are mediated by the 5-HT7 receptor.
The experiments were carried out under the same conditions as described in Example 1,
A preferred 5-HT7 receptor agonist is 1-[3-[4-[3-(trifluoromethyl)-phenyl]-piperazine-1-yl]-propyl]-3-hydroxy-1H-pyridine-2-on (= Compound A), a compound which can be prepared as discribed in example 3. The 5-HT7 agonist Compound A was administered as an intravenous bolus followed by a maintenance infusion.

For data set [2], the target named is T1, 5-HT1A receptor (Homo sapiens, UniProt P08908).
T1 sequence (P08908 1-422): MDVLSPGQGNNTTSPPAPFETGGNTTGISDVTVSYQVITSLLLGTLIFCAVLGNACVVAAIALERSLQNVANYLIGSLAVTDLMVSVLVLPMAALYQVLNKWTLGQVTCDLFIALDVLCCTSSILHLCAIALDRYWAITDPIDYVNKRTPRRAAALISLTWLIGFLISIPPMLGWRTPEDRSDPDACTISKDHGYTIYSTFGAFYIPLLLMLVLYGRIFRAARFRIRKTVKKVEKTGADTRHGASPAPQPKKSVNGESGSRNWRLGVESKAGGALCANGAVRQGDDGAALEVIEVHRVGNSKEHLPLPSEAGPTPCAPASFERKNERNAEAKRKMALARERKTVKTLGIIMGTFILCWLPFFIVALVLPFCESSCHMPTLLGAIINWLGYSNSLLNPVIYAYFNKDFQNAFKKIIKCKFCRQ
The data set can be described thus: Affinity to the 5-HT1A receptor. It counts as binding. From the text:
(§1) The affinity of a compound to a human 5-HT receptor can be measured and calculated easily by methods known to a skilled person.

Data set [3] concerns the target 5-HT7 receptor (Homo sapiens, UniProt P34969). The data set can be described thus: Affinity to the 5-HT7 receptor. It is filed as binding.
From the text: as §1

5-HT7 receptor, sequence (P34969 whole entry): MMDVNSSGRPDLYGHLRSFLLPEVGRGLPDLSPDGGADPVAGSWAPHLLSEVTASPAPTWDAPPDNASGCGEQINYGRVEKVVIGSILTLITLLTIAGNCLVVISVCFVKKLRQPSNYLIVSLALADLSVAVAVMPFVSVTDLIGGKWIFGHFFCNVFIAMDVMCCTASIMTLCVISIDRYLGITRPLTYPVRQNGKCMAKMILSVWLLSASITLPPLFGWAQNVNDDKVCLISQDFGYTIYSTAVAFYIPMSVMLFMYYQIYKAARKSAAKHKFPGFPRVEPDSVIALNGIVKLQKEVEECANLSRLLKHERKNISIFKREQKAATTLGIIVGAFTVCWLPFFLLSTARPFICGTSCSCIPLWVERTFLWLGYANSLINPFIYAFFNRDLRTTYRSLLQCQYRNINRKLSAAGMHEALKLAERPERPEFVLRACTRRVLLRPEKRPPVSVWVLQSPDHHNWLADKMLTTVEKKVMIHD

For `CCCN(CCC)C1CCc2cccc(O)c2C1` (stereo not drawn) [R(+)-8-OH-DPAT, 8-hydroxy-di-n-propylamino tetralin], the “Infarct volume, % of control, mean ± SD, (n) Treatment” value in data set [1] (Example 1: 2 mg/kg R(+)-8-OH-DPAT i.v. + 1 mg/kg/h i.v. infusion, started 90 min after MCA occlusion, combination: pretreated with 2.14 mg/kg/h WAY 100,635 i.p. from 2 hours before occlusion, infarct volume 22 hours after occlusion) is on record as 72±32(12) % of control. In addition, the Stereotyped behavior result in data set [1] (Example 1: same dosing as for infarct volume, with or without WAY 100,635 pretreatment) is recorded as “Yes”. For the same compound, the “reduction of infarct volume” value in data set [1] (Example 1: versus placebo, 22 hours after MCA occlusion) stood at 28%.

By Ki is commonly meant the equilibrium dissociation constant of an inhibitor or competing ligand from its target. A low value points to tighter binding. Regarding `O=c1c(O)cccn1CCCN1CCN(c2cccc(C(F)(F)F)c2)CC1` [Compound A, 1-[3-[4-[3-(trifluoromethyl)-phenyl]-piperazine-1-yl]-propyl]-3-hydroxy-1H-pyridine-2-on], the Stereotyped behavior result in data set [1] (Example 2: dose 4+2 mg/kg + mg/kg/h i.v.) is on record as “No”. Moreover, the “Infarct volume, % of control, mean ± SD, (n) Treatment” value in data set [1] (Example 2: dose 4+2 mg/kg + mg/kg/h i.v. (bolus + maintenance infusion), same conditions as Example 1) is reported as 78±23(10) % of control. Also, the Ki amounted to 130 nM in data set [2] and 7 nM in data set [3]. In addition, the “selectivity for the 5-HT7 receptor” value in data set [3] (5-HT7 over 5-HT1A (ratio of Ki values)) is “approximately 19 fold”.
